{
  "source": "paper PMC9548544",
  "about": "“Population pharmacokinetic model of vancomycin in postoperative neurosurgical patients” (Frontiers in Pharmacology, 2022)",
  "key": {"[1]": {"settings": "ref Lin Wu et al., 2015; cited from earlier work"}, "[2]": {"settings": "ref Rybak, 2006, cited from earlier work"}, "[3]": {"assay": "Population pharmacokinetic (NLME, one-compartment) model of vancomycin in postoperative neurosurgical patients", "experimental": "The data of patients who received vancomycin therapy from October 2018 to March 2022 in Beijing Tiantan Hospital, Capital Medical University were retrospectively collected. Inclusion criteria were: 1) age ≥18 years; 2) therapeutic drug monitoring was performed during treatment and at least 1 vancomycin concentration was obtained. Exclusion criteria were: 1) pregnant women ([Lin et al., 2021]); 2) cystic fibrosis ([Jing et al., 2020]).\n(§1) The dosage regimen of vancomycin is adjusted by the clinicians according to the patient’s conditions and renal function, including 1 g Qd, 1 g Q12h, 1 g Q8h, 0.5 g Qd, 0.5 g Q12h, 0.5 g Q8h and 0.5 g Q6h. The infusion time cannot be accurately obtained, but 1 h infusion was most used in clinical applications, so the default infusion time in this study was 1 h. Vancomycin serum concentrations were obtained from patient’s therapeutic drug monitoring data, most of which were steady state (>4 doses) trough concentrations. The blood samples were anticoagulated by Ethylene Diamine Tetraacetic Acid, centrifuged at 5,000 rpm for 3 min and analyzed by chemiluminescence immunoassay (ADVIA Centaur® XP, Siemens). Sample calibration and quality control were carried out in accordance with the manufacturer’s instructions and the calibration range was 0.67–90 mg/L.\nIn this study, nonlinear mixed effects modeling (NLME) method was used to construct the PPK model. Pharmacokinetic parameters and the variability were assessed using the first-order conditional estimation with extended least square method (FOCE-ELS) by using the Phoenix® NLME software (version 8.3; Certara, St. Louis, Missouri). Bootstrap and visual predictive check (VPC) were used to test the stability and predictive ability of the final model.\nThe one-compartment model with first-order elimination was used to describe the pharmacokinetic characteristics of vancomycin. The sparse trough concentration data led to the inaccurate estimation of the V. Therefore, the population typical value of V was fixed at 60.2 L according to a PPK model in Chinese neurosurgery adult patients ([Jing et al., 2020]).\nInter-individual variability (η) of PPK model was described by exponential random effect model in Eq. 1. Residual variability (ε) was described by combined (multiplicative and additive) error model in Eq. 2. The η was assumed to follow a normal distribution with a mean of zero and a variance of ω ^2. The ε was assumed to follow a normal distribution with a mean of zero and a variance of σ ^2. θi=θTV×e^ηi, (1) Cobs=Cpred+ε×1+(Cpred×σ1/σ2)^2 (2) where θ TV is the population typical value of pharmacokinetic parameters, θ i is the individual (i ^th) pharmacokinetic parameters. Cobs and Cpred respectively represent the measured concentration and predicted concentration of a patient; σ 1 represents the multiplicative σ, and σ 2 represents the standard deviation of ε.\nContinuous covariates included age, height, BW, body mass index, serum creatinine (Scr), creatinine clearance (CLcr) and estimated glomerular filtration rate (eGFR). Categorical covariates included sex, RRT and concomitant drugs (mannitol, meropenem and diuretics). CLcr is calculated by the Cockcroft-Gault equation ([Cockcroft and Gault, 1976]). eGFR is calculated by the Chronic Kidney Disease Epidemiology Collaboration (CKD-EPI) equation ([Kong et al., 2013]). All continuous covariates are centered at their median values. The difference of the objective function value (OFV) was used to compare the models.\nAfter the establishment of the base model, the effects of covariates on pharmacokinetic parameters were tested by forward addition and backward elimination under stepwise manner. In the forward addition, if the decrease of OFV was greater than 6.64 (p < 0.01, df = 1), the covariate was considered to have a significant influence on the model parameters."}, "[4]": {"assay": "Therapeutic drug monitoring of vancomycin serum concentration (chemiluminescence immunoassay)", "format": "in vivo, human", "settings": "mostly steady state (>4 doses) trough, 895 observations from 560 patients, dose 951.19 ± 152.23 mg/time, SD", "experimental": "Inclusion criteria were: 1) age ≥18 years; 2) therapeutic drug monitoring was performed during treatment and at least 1 vancomycin concentration was obtained. Exclusion criteria were: 1) pregnant women ([Lin et al., 2021]); 2) cystic fibrosis ([Jing et al., 2020]).\nas §1"}, "[5]": {"settings": "fixed, not estimated, ref Jing et al., 2020, cited from earlier work"}},
  "data": [
    {"smiles": "CN[C@H](CC(C)C)C(=O)N[C@H]1C(=O)N[C@@H](CC(N)=O)C(=O)N[C@H]2C(=O)N[C@H]3C(=O)N[C@H](C(=O)N[C@H](C(=O)O)c4cc(O)cc(O)c4-c4cc3ccc4O)[C@H](O)c3ccc(c(Cl)c3)Oc3cc2cc(c3O[C@@H]2O[C@H](CO)[C@@H](O)[C@H](O)[C@H]2O[C@H]2C[C@](C)(N)[C@H](O)[C@H](C)O2)Oc2ccc(cc2Cl)[C@H]1O", "note": "[vancomycin, Vancomycin]", "values": [
      {"measurement": "V in another eligible study", "setting": "[1]", "value": "54 ± 17", "unit": "L"},
      {"measurement": "absorption by oral administration", "setting": "[2]; oral", "value": "almost not absorbed"},
      {"measurement": "α half-life", "setting": "[2]; patients with normal renal function, printed as 'approximately'", "value": "0.5 to 1", "unit": "h"},
      {"measurement": "terminal elimination half-life", "setting": "[2]; patients with normal renal function", "value": "3 to 9", "unit": "h"},
      {"measurement": "protein binding rate", "setting": "[2]; printed as 'about'", "value": "10%–50%"},
      {"measurement": "share of vancomycin excreted in prototype through the kidney", "setting": "[2]; within 24 h after administration", "value": "more than 80%"},
      {"measurement": "Mannitol on CL (L/h), final model, Estimate (%RSE)", "setting": "[3]; A in e^A of the CL equation when co-medicated with mannitol, final model", "value": "0.13 (17.85) L/h"},
      {"measurement": "Mannitol on CL (L/h), Bootstrap Median (%RSE)", "setting": "[3]; A in e^A when co-medicated with mannitol, bootstrap, 5,000 data sets", "value": "0.13 (17.72) L/h"},
      {"measurement": "CL (L/h), base model, Estimate (%RSE)", "setting": "[3]; base model without covariates", "value": "8.08 (1.93) L/h"},
      {"measurement": "CL (L/h), Bootstrap Median (%RSE)", "setting": "[3]; bootstrap of final model, 5,000 data sets", "value": "7.97 (2.24) L/h"},
      {"measurement": "BW on CL (L/h), final model, Estimate (%RSE)", "setting": "[3]; exponent of (BW/70) in the CL equation, final model", "value": "0.30 (20.19) L/h"},
      {"measurement": "BW on CL (L/h), Bootstrap Median (%RSE)", "setting": "[3]; exponent of (BW/70), bootstrap, 5,000 data sets", "value": "0.30 (19.91) L/h"},
      {"measurement": "eGFR on CL (L/h), Bootstrap Median (%RSE)", "setting": "[3]; exponent of (eGFR/115.2), bootstrap, 5,000 data sets", "value": "0.80 (4.39) L/h"},
      {"measurement": "CL (L/h), population typical value, final model, Estimate (%RSE)", "setting": "[3]; final model, one-compartment, FOCE-ELS, 895 concentrations from 560 patients, iv infusion, covariates centred at eGFR 115.2, BW 70, no mannitol", "value": "7.98 (1.90) L/h"},
      {"measurement": "increase in vancomycin CL when co-medicated with mannitol", "setting": "[3]; final model, with versus without mannitol", "value": 14, "unit": "%"},
      {"measurement": "typical value of vancomycin CL per body weight", "setting": "[3]; this study, postoperative neurosurgical patients", "value": 1.83, "unit": "mL/min/kg"},
      {"measurement": "Concentration (mg/L), mean ± standard deviation", "setting": "[4]", "value": "14.20 ± 7.36", "unit": "mg/L"},
      {"measurement": "V (L), base model", "setting": "[5]; base model", "value": 60.2, "unit": "L"},
      {"measurement": "V (L), Bootstrap", "setting": "[5]; bootstrap", "value": 60.2, "unit": "L"},
      {"measurement": "V (L), apparent distribution volume, final model", "setting": "[5]; final model", "value": 60.2, "unit": "L"}
    ]}
  ]
}
